From patent US20250230193A1, “CYCLIC COMPOUND HAVING SELECTIVE KRAS INHIBITORY EFFECT ON HRAS AND NRAS” (CHUGAI SEIYAKU KABUSHIKI KAISHA, priority 2022, published 2025)

Key:
[1] = target: GDP-bound NRAS wild-type protein (Homo sapiens, UniProt P01111); experiment: Binding to NRAS by surface plasmon resonance (SPR), Single Cycle Kinetics
[2] = target: GDP-bound HRAS wild-type protein (Homo sapiens, UniProt P01112); experiment: Binding to HRAS by surface plasmon resonance (SPR), Single Cycle Kinetics
GDP-bound HRAS wild-type protein, sequence (P01112 whole entry): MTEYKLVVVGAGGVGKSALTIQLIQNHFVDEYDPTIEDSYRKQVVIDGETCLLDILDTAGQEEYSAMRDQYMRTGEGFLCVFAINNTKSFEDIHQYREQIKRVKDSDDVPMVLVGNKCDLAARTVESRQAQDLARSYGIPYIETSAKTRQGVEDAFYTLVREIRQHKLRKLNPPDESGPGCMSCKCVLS

[3] = GDP-bound NRAS wild-type vs GDP-bound KRAS wild-type, SPR
[4] = GDP-bound HRAS wild-type vs GDP-bound KRAS wild-type, SPR

GDP-bound NRAS wild-type protein, sequence (P01111 whole entry): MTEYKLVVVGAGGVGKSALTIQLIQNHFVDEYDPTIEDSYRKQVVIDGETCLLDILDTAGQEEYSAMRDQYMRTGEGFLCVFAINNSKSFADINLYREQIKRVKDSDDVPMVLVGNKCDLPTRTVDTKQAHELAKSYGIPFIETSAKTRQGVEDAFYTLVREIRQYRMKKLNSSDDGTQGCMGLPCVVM

CCO[C@@H]1C[C@H]2C(=O)NC3(CCC3)C(=O)N(C)[C@@H](C3CCCC3)C(=O)N(C)[C@H](C(=O)N(C)CCOC)CC(=O)N(C)[C@@H](CC(C)C)C(=O)N[C@@H]([C@@H](C)CC)C(=O)N(C)CC(=O)N(C)[C@H]3C/C=C\CCN(C3=O)[C@@H](Cc3ccc(C(F)(F)F)cc3)C(=O)N(C)CC(=O)N[C@@H](CCc3ccc4sccc4c3)C(=O)N2C1 [PP1325]
NRAS/KRAS (ratio of KD value for GDP-bound NRAS wild-type protein to KD value for KRAS) ([1]; SPR, KD ratio class): A (a compound having 10 or more and less than 20 is denoted as A) | HRAS/KRAS (ratio of KD value for GDP-bound HRAS wild-type protein to KD value for KRAS) ([2]; SPR, KD ratio class): A (a compound having 10 or more and less than 20 is denoted as A)

CCC(CC)[C@H]1C(=O)N(C)[C@H](C(=O)N2CCCCC2)CC(=O)N(C)[C@@H](COC)C(=O)N[C@@H]([C@@H](C)CC)C(=O)N(C)CC(=O)N(C)[C@H]2C/C=C\CCN(C2=O)[C@@H](Cc2ccc(C(F)(F)F)cc2)C(=O)N(C)CC(=O)N[C@@H](CCc2cc(F)c(C(F)(F)F)c(F)c2)C(=O)N2C[C@H](OC(C)C)C[C@H]2C(=O)NC2(CC(C)(C)C2)C(=O)N1C [PP2608]
NRAS/KRAS (ratio of KD value with respect to GDP-bound NRAS wild-type protein to KD value with respect to KRAS) ([1]; class symbols): AA (a compound having 20 or more is denoted as AA) | HRAS/KRAS (ratio of KD value with respect to GDP-bound HRAS wild-type protein to KD value with respect to KRAS) ([2]; class symbols): A (a compound having 10 or more and less than 20 is denoted as A)

CCO[C@@H]1C[C@H]2C(=O)NC3(CC(C)(C)C3)C(=O)N(C)[C@@H](C(CC)CC)C(=O)N(C)[C@H](CC)CC(=O)N(C)[C@@H](CC3CC3)C(=O)N[C@@H]([C@@H](C)CC)C(=O)N(C)CC(=O)N(C)[C@H]3C/C=C\CCN(C3=O)[C@@H](Cc3ccc(C(F)(F)F)cc3)C(=O)N(C)CC(=O)N[C@@H](CCc3cc(F)c(C(F)(F)F)c(F)c3)C(=O)N2C1 [PP1628]
NRAS/KRAS (ratio of KD value for NRAS to KD value for KRAS) [1, 3]: A (a compound having 10 or more and less than 20 is denoted as A) | HRAS/KRAS (ratio of KD value for HRAS to KD value for KRAS) [2, 4]: A (a compound having 10 or more and less than 20 is denoted as A)

CC[C@H](C)[C@@H]1NC(=O)[C@H](CC(C)C)N(C)C(=O)C[C@@H](C(=O)N2CCOCC2)N(C)C(=O)[C@H](C2CCCC2)N(C)C(=O)C2(CCCC2)NC(=O)[C@@H]2CCCN2C(=O)[C@H](CCc2ccc(C(F)(F)F)c(Cl)c2)NC(=O)CN(C)C(=O)[C@H](Cc2ccc(Cl)cc2)N2C/C=C\CC[C@@H](C2=O)N(C)C(=O)CN(C)C1=O [PP0608]
NRAS/KRAS (ratio of KD value with respect to GDP-bound NRAS wild-type protein to KD value with respect to KRAS) ([1]; SPR): C (A compound having a KD ratio of 0.1 or more and less than 3 is denoted as C) | HRAS/KRAS (ratio of KD value with respect to GDP-bound HRAS wild-type protein to KD value with respect to KRAS) ([2]; SPR): B (a compound having 3 or more and less than 10 is denoted as B)

CCC[C@H]1C(=O)N[C@@H](CC(C)C)C(=O)N(C2CC2)CC(=O)N(C)[C@H]2C/C=C\CCN(C2=O)[C@@H](Cc2ccc(C)cc2)C(=O)N(C)CC(=O)N[C@@H](CCc2ccc(C(F)(F)F)c(OC)c2)C(=O)N2C[C@H](OCC)C[C@H]2C(=O)NC2(CCC2)C(=O)N(C)[C@@H](C2CCCC2)C(=O)N(C)[C@H](C(=O)N(C)C)CC(=O)N1C [PP2534]
NRAS/KRAS (ratio of KD value with respect to GDP-bound NRAS wild-type protein to KD value with respect to KRAS) ([1]; class symbols): A (a compound having 10 or more and less than 20 is denoted as A) | HRAS/KRAS (ratio of KD value with respect to GDP-bound HRAS wild-type protein to KD value with respect to KRAS) ([2]; class symbols): B (a compound having 3 or more and less than 10 is denoted as B)

CCCN(C)C(=O)[C@@H]1CC(=O)N(C)[C@@H](CC(F)F)C(=O)N[C@@H]([C@@H](C)CC)C(=O)N(C)CC(=O)N(C)[C@H]2C/C=C\CCN(C2=O)[C@@H](Cc2ccc(C(F)(F)F)cc2)C(=O)N(C)CC(=O)N[C@@H](CCc2cc(F)c(C(F)(F)F)c(F)c2)C(=O)N2C[C@H](OCC)C[C@H]2C(=O)NC2(CC(C)(C)C2)C(=O)N(C)[C@@H](C2CCCC2)C(=O)N1C [PP2030]
NRAS/KRAS (ratio of KD value for NRAS to KD value for KRAS) [1, 3]: A (a compound having 10 or more and less than 20 is denoted as A) | HRAS/KRAS (ratio of KD value for HRAS to KD value for KRAS) [2, 4]: A (a compound having 10 or more and less than 20 is denoted as A)

CC[C@H](C)[C@@H]1NC(=O)[C@H](CC(C)C)N(C)C(=O)C[C@@H](C(=O)N2CCC2)N(C)C(=O)[C@H](C2CCCC2)N(C)C(=O)C2(CCCC2)NC(=O)[C@@H]2CCCN2C(=O)[C@H](CCc2cc(F)c(C(F)(F)F)c(F)c2)NC(=O)CN(C)C(=O)[C@H](Cc2ccc(C(F)(F)F)cc2)N2CCCC[C@@H](C2=O)N(C)C(=O)CN(C)C1=O [PP0570]
NRAS/KRAS (ratio of KD value with respect to GDP-bound NRAS wild-type protein to KD value with respect to KRAS) ([1]; SPR): B (a compound having 3 or more and less than 10 is denoted as B) | HRAS/KRAS (ratio of KD value with respect to GDP-bound HRAS wild-type protein to KD value with respect to KRAS) ([2]; SPR): B (a compound having 3 or more and less than 10 is denoted as B)

CCO[C@@H]1C[C@H]2C(=O)NC3(CC(C)(C)C3)C(=O)N(C)[C@@H](C3CCCC3)C(=O)N(C)[C@H](C(=O)N(C)CC)CC(=O)N(C)[C@@H](C3CC3)C(=O)N[C@@H]([C@@H](C)CC)C(=O)N(C)CC(=O)N(C)[C@H]3C/C=C\CCN(C3=O)[C@@H](Cc3ccc(C(F)(F)F)cc3)C(=O)N(C)CC(=O)N[C@@H](CCc3cc(F)c(C(F)(F)F)c(F)c3)C(=O)N2C1 [PP2036]
NRAS/KRAS (ratio of KD value with respect to NRAS to KD value with respect to KRAS) ([1]; SPR, GDP-bound NRAS wild-type vs GDP-bound KRAS wild-type): A (a compound having 10 or more and less than 20 is denoted as A) | HRAS/KRAS (ratio of KD value with respect to HRAS to KD value with respect to KRAS) ([2]; SPR, GDP-bound HRAS wild-type vs GDP-bound KRAS wild-type): A (a compound having 10 or more and less than 20 is denoted as A)
